# Measurements taken from US12319664B2, “Herbicidally active 3-phenylisoxazoline-5-carboxamides of cyclopentenylcarboxylic acid derivatives” (Bayer Aktiengesellschaft, priority 2018, dated 2025).
# Assays:
# [1] = test system: MATIN; test: Post-emergence herbicidal action against MATIN; type: in vivo, Matricaria inodora; conditions: application rate 80 g/ha, rated visually about 3 weeks after treatment
# Procedure: [table] 2. Post-emergence herbicidal action against harmful plants and crop plant compatibility Seeds of monocotyledonous and dicotyledonous weeds and crop plants are placed in sandy loam in plastic or wood-fibre pots, covered with soil and cultivated in a greenhouse under controlled growth conditions. 2 to 3 weeks after sowing, the test plants are treated at the one-leaf stage. The compounds of the invention, formulated in the form of wettable powders (WP) or as emulsion concentrates (EC), are then sprayed onto the green parts of the plants as aqueous suspension or emulsion with addition of 0.5% additive at a water application rate of 600 l/ha (converted). After the test plants have been kept in the greenhouse under optimum growth conditions for about 3 weeks, the activity of the preparations is rated visually in comparison to untreated controls. For example, 100% activity=the plants have died, 0% activity=like control plants.
# [2] = test system: ALOMY; test: Post-emergence herbicidal action against ALOMY; type: in vivo, Alopecurus myosuroides; conditions: application rate 80 g/ha, rated visually after about 3 weeks
# Procedure, shortened: (§1)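 Aqueous suspensions or emulsions of WP/EC formulations containing 0.5% additive are sprayed at 600 l/ha onto plants at the one-leaf stage. After about 3 weeks in the greenhouse, activity is rated by eye versus untreated controls.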
# [3] = test system: HORMU; test: Post-emergence herbicidal action against HORMU; type: in vivo, Hordeum murinum; conditions: application rate 80 g/ha
# Procedure, shortened: as §1
# [4] = test system: POLCO; test: Post-emergence herbicidal action against POLCO; type: in vivo, Polygonum convolvulus; conditions: application rate 80 g/ha, rated visually about 3 weeks after treatment
# Procedure, shortened: as §1
# [5] = test system: AVEFA; test: Post-emergence herbicidal action against AVEFA; type: in vivo, Avena fatua; conditions: application rate 80 g/ha, rated visually after about 3 weeks
# Procedure, shortened: as §1
# [6] = test system: ABUTH; test: Post-emergence herbicidal action against ABUTH; type: in vivo, Abutilon theophrasti; conditions: application rate 80 g/ha, rated visually about 3 weeks after treatment
# Procedure, shortened: as §1
# [7] = test system: SETVI; test: Post-emergence herbicidal action against SETVI; type: in vivo, Setaria viridis; conditions: application rate 80 g/ha, rated visually after about 3 weeks
# Procedure, shortened: as §1
# [8] = test system: VERPE; test: Post-emergence herbicidal action against VERPE; type: in vivo, Veronica persica; conditions: application rate 80 g/ha
# Procedure, shortened: as §1
# [9] = test system: STEME; test: Post-emergence herbicidal action against STEME; type: in vivo, Stellaria media; conditions: application rate 80 g/ha, rated visually about 3 weeks after treatment
# Procedure, shortened: as §1
# [10] = test system: ECHCG; test: Post-emergence herbicidal action against ECHCG; type: in vivo, Echinochloa crus-galli; conditions: application rate 80 g/ha, rated visually after about 3 weeks
# Procedure, shortened: as §1
# [11] = test system: LOLRI; test: Post-emergence herbicidal action against LOLRI; type: in vivo, Lolium rigidum; conditions: application rate 80 g/ha, rated visually after about 3 weeks
# Procedure, shortened: as §1
# [12] = test system: PHBPU; test: Post-emergence herbicidal action against PHBPU; type: in vivo, Pharbitis purpurea; conditions: application rate 80 g/ha, rated visually about 3 weeks after treatment
# Procedure, shortened: as §1
# [13] = test system: AMARE; test: Post-emergence herbicidal action against AMARE; type: in vivo, Amaranthus retroflexus; conditions: application rate 80 g/ha, rated visually about 3 weeks after treatment
# Procedure, shortened: as §1
# [14] = test system: VIOTR; test: Post-emergence herbicidal action against VIOTR; type: in vivo, Viola tricolor; conditions: application rate 80 g/ha, rated visually about 3 weeks after treatment
# Procedure, shortened: as §1
SMILES,Herbicidal action against [%] MATIN [1] [%],Herbicidal action against [%] ALOMY [2] [%],Herbicidal action against [%] HORMU [3] [%],Herbicidal action against [%] POLCO [4] [%],Herbicidal action against [%] AVEFA [5] [%],Herbicidal action against [%] ABUTH [6] [%],Herbicidal action against [%] SETVI [7] [%],Herbicidal action against [%] VERPE [8] [%],Herbicidal action against [%] STEME [9] [%],Herbicidal action against [%] ECHCG [10] [%],Herbicidal action against [%] LOLRI [11] [%],Herbicidal action against [%] PHBPU [12] [%],Herbicidal action against [%] AMARE [13] [%],Herbicidal action against [%] VIOTR [14] [%]
CC1(C(=O)N[C@H]2C=C[C@@H](C(=O)OCCCl)C2)CC(c2cc(F)cc(F)c2)=NO1 (stereo partly shown) [Example I-009],90,90,90,90,90,90,90,90,90,90,90,90,–,–
COC(=O)[C@@H]1C=C[C@H](NC(=O)C2(OC)CC(c3cc(F)cc(F)c3)=NO2)C1 (stereo partly shown) [Example I-019],90,90,90,100,100,80,90,90,90,80,90,–,90,80
COC(=O)C1C=CC(NC(=O)C2(C(F)(F)F)CC(c3cc(Cl)cc(Cl)c3)=NO2)C1 (mixture of isomers) [Example I-039],80,100,80,–,90,80,80,80,90,90,100,80,80,–
COC(=O)C1C=CC(NC(=O)C2(C(F)(F)F)CC(c3cc(C)cc(C(F)(F)F)c3)=NO2)C1 (mixture of isomers) [Example I-048],80,100,90,–,90,80,–,80,90,80,80,80,–,–
Cc1cc(F)cc(C2=NOC(C(=O)NC3C=CC(C(=O)OCC(F)(F)F)C3)(C(F)(F)F)C2)c1 (mixture of isomers) [Example I-032],80,90,80,100,100,–,90,80,–,–,90,–,90,80
C=CC1(C(=O)N[C@H]2C=C[C@@H](C(=O)OCCC(F)(F)F)C2)CC(c2cc(F)cc(F)c2)=NO1 (stereo partly shown) [Example I-017],80,100,100,90,100,100,90,90,100,100,100,–,90,80
COC(=O)[C@@H]1C=C[C@H](NC(=O)C2(C(F)(F)F)CC(c3cc(C)cc(Cl)c3)=NO2)C1 (stereo partly shown) [Example I-027],90,90,80,–,90,80,90,80,80,80,90,–,80,80
COC(=O)[C@@H]1C=C[C@H](NC(=O)C2(C(F)(F)F)CC(c3cc(C)cc(F)c3)=NO2)C1 (stereo partly shown) [Example I-024],80,90,80,90,100,80,80,80,–,90,90,–,90,80
CCOC(=O)C1C=CC(NC(=O)C2(C(F)(F)F)CC(c3cc(C)cc(C(F)(F)F)c3)=NO2)C1 (mixture of isomers) [Example I-036],80,90,80,90,80,80,–,80,–,–,90,–,80,90
CCOC(=O)[C@@H]1C=C[C@H](NC(=O)C2(C(F)(F)F)CC(c3cc(C)cc(F)c3)=NO2)C1 (stereo partly shown) [Example I-022],80,100,80,100,100,90,100,80,–,80,100,–,100,80
CCOC(=O)C1C=CC(NC(=O)C2(C(F)(F)F)CC(c3cc(F)cc(C#N)c3)=NO2)C1 (mixture of isomers) [Example I-071],80,90,90,90,100,80,90,80,90,90,90,–,80,80
C=CC1(C(=O)NC2C=CC(C(=O)OCc3ccccc3)C2)CC(c2cc(F)cc(F)c2)=NO1 (mixture of isomers) [Example I-033],90,90,80,100,90,80,90,80,80,90,90,80,90,–
CC1(C(=O)N[C@H]2C=C[C@@H](C(=O)OCc3ccccc3)C2)CC(c2cc(F)cc(F)c2)=NO1 (stereo partly shown) [Example I-008],90,100,90,90,90,90,90,90,90,90,90,90,90,–
C=CC1(C(=O)NC2C=CC(C(=O)NS(=O)(=O)CCC)C2)CC(c2cc(F)cc(F)c2)=NO1 (mixture of isomers) [II-14],90,100,90,90,100,–,90,90,–,100,100,–,90,90
